Reference: patent US20260028374A1, “EPIDERMAL GROWTH FACTOR RECEPTOR INHIBITORS” (FILAMON LTD, priority 2023, published 2026)
Square brackets hold non-standard residues; d marks the D form. Peptide text beside a SMILES is read from it. 2Nal = N[C@@H](Cc1ccc2ccccc2c1)C(=O)O; d1Nal = N[C@H](Cc1cccc2ccccc12)C(=O)O

What was measured:
EGFR [1] = target: T1, EGFR (Homo sapiens, UniProt P00533); assay: Western blot of EGFR in PC-3 cells; format: cell-based; settings: PC-3, 100 μM, time course 3, 16, 24 and 48 hours
T1 sequence (P00533 25-1210): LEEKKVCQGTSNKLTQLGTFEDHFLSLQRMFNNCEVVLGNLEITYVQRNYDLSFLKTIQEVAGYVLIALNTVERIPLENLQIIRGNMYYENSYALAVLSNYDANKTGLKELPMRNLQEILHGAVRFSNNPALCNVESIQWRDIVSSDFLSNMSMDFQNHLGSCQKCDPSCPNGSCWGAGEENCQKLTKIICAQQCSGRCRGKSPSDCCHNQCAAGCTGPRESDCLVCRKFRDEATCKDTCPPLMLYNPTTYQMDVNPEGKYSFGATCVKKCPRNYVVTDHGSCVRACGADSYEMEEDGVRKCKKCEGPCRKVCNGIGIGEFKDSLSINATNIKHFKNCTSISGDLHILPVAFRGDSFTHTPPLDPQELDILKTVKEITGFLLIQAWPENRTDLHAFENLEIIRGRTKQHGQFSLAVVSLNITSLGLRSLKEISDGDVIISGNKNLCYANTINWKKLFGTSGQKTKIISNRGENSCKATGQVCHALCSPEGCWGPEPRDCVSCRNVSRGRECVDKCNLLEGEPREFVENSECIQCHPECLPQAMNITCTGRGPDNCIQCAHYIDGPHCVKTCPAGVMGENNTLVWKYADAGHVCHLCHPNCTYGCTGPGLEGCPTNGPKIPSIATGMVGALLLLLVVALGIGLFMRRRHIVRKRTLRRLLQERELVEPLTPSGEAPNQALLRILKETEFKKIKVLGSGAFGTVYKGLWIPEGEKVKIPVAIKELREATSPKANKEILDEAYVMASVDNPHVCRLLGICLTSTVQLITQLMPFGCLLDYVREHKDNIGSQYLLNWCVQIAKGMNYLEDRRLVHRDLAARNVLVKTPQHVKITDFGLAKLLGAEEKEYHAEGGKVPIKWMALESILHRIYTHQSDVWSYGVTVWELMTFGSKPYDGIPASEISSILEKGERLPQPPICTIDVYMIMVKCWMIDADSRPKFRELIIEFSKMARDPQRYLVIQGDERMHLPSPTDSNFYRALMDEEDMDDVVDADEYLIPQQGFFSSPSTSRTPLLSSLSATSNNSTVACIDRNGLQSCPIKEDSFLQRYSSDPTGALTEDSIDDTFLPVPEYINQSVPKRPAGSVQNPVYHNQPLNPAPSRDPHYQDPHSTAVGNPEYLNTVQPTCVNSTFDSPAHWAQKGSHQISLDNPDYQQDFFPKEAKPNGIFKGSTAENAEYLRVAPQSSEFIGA
Experimental: (§1) FIG. 3. (a) PC-3 cells treated with DMSO (0.5%), FLM-c2 (100 μM), D1-D3 (100 μM) or EGF (50 ng/mL) for 24 h, detected for EGFR and GAPDH. (b) PC-3 cells tagged with EGFR-EGFP and lysotracker treated with DMSO (0.5%) or D3 (100 μM) for 24 h.
FIG. 4. (a) PC-3 cells were treated with D1-D3 (100 μM) for 3, 16, 24 and 48 hours. EGFR and ß-Actin ratio was detected. (b) the EGFR:ß-Actin ratio was plotted after normalising to DMSO control.
PC-3 cells were seeded in a 6 well plate at 200,000 cells/well overnight at 37° C. and 5% C02. Media was removed, cells were washed with PBS and serum free media added 1 hour before treatment with FLM-c2, D1-D3 for 3-48 hours. After treatment, media was removed and cells were washed with ice cold PBS. PBS was removed and cells were scraped into 1 mL of PBS containing 5.3 mM of EDTA and centrifuged at 2500 g for 2 min. PBS was removed and cells were lysed with lysis buffer (PBS, 0.1% NP-40, 0.1% sodium deoxycholate, 150 mM NaCl, 1 mM EDTA, 1 mM dithiothreitol, 1 mM phenylmethylsulfonyl fluoride, and IX protease inhibitor cocktail)^17 and mixed with RM-2L Intelli-mixer for 30 min at 4° C. Lysates were then centrifuged at 12,000 g for 20 min at 4° C. 20 μg of lysate was added to 4 μL of Bolt reducing agent and 10 μL of reducing buffer (both reagents supplied by Thermo Fisher Scientific) for a final volume of 40 μL with PBS. Samples were boiled and run on a gel, transferred to a membrane and blocked for 1 hour in 5% skim milk at 25° C. Membrane was probed with either EGFR antibody #2232, GAPDH antibody #2118 or BS-Actin antibody #4970 (Cell Signalling) at 1:1000 in 5% skim milk/TBST overnight at 4° C. Each membrane was washed three times with 50 mL TBST for 5 mins and then incubated with the relevant secondary α-rabbit IgG-HRP-linked antibody (1:1000), for 1 hour at room temperature. The membrane was washed as described above and imaged with the Licor Odyssey.

SW48 and SW48G12V = assay: Combination cell viability in isogenic CRC cell lines; format: cell-based; settings: D1 0.001-100 μM with cetuximab 0.02-30 μg/mL, 72 hours
EGFR [2] = target: T1, EGFR; assay: EGFR and lysotracker staining in A549 cells; format: cell-based; set-up: endogenous in cells; host or cells: A549; settings: A549, 16 hours
Experimental: FIG. 5: (a) A549 cells were treated with DMSO (0.5%), EGF (50 ng/mL), or D1-D3 (1-100 μM) for 16 hours, before staining with lysotracker (red), fixing and staining with EGFR antibody (green). (b) EGFR signal, (c) EGFR membrane signal, (d) lysotracker signal and (e) EGFR speckle lysotracker signal (bars SEM) were quantified (n=3, >20 cells per replicate). Scale bars 20 μm.
To investigate the mechanism of how LYTAPS cause EGFR degradation, LYTAPs D1-D3 (1-100 μM) were incubated on A549 cells for 16 hours, with DMSO (0.5%) and high EGF (50 ng/mL) used as controls. Cells were then stained with Lysotracker, fixed and stained with EGFR-antibody. Under DMSO control, the majority of EGFR signal is present at the membrane (FIG. 5a).

[3] = tested on: CRC and NSCLC cancer cell lines; assay: Proliferation assays in CRC and NSCLC cancer cell lines
EGF-EGFR interaction = target: T2, EGF-EGFR interaction (Homo sapiens, UniProt P00533); assay: EGF-EGFR AlphaLISA assay; format: binding; settings: in vitro AlphaLISA; for inhibition of the EGF/EGFR interaction: 0.01-200 μM
T2 construct: purchased Perkin-Elmer
T2 sequence (P00533 25-645 limits assumed): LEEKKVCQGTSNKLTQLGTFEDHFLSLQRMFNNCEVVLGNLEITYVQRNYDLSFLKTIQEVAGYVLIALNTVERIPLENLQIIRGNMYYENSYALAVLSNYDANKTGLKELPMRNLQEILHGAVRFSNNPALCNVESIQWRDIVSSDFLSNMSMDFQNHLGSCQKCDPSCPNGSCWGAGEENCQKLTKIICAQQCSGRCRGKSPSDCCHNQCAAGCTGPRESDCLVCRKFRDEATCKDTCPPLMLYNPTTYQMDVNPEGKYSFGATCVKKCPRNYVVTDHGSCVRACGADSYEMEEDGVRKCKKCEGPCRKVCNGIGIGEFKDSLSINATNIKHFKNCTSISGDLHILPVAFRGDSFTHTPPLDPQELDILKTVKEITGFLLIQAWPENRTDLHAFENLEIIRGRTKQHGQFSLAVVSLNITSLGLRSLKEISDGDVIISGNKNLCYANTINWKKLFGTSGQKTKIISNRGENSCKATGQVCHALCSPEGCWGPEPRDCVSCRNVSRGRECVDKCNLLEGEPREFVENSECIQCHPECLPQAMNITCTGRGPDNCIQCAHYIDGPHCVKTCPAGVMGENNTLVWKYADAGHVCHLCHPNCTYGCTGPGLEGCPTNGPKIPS
Experimental: FIG. 2. […] Representation of the molecules are as described in FIG. 1.
The AlphaLISA EGF/EGFR binding kit (Perkin-Elmer) was used as per the manufacturer's instructions. […] Finally, 5 μL of EGFR acceptor beads were added, and fluorescence imaged on a plate reader.

pERK = pERK immunofluorescence in A549 cells after EGF stimulation; format: cell-based; settings: A549, 100 μM for 16 hours, then EGF 10 ng/mL
Experimental: FIG. 6: A549 cells were treated with DMSO or D1-D3 (10-100 μM) for 16 hours before incubation with EGF (10 ng/mL) for 30 minutes, before cells were fixed and stained for pERK (green). Scale bars 20 μm, n=3, >20 cells per replicate.
To examine whether LYTAPs can inhibit EGFR downstream signalling, A549 cells were pre-incubated with 10-100 μM of D1-D3 for 16 hours, before stimulation with EGF (10 ng/mL) for […]. Cells were then fixed and immunofluorescently stained for pERK.

[4] = tested on: NSCLC cell lines H3255 and H1975; assay: Combination cell viability in NSCLC cell lines; format: cell-based; settings: H3255 and H1975, 72 hours
H3255 = settings: H3255, EGFR - L858R, cited from earlier work
H1975 = settings: H1975, EGFR- L858R/T790M, cited from earlier work
[5] = tested on: EGFR, Rab5 and hGIIA localisation; assay: Live cell imaging of EGFR, Rab5 and hGIIA localisation in PC-3 cells; format: cell-based; settings: PC-3, Lapatinib 5 μM, control for EGFR inhibition
Experimental: (e) PC-3 cells co-transfected with Rab5-mCherry (red), EGFR-GFP (green) and treated with hGIIA/AF647 (purple) as well as c2 at 1 μM and 10 μM for 24 hours. EGF (25 ng/mL) and Lapatinib (5 μM) were used as control treatments. N=3, >5 cells per replicate.
The effect of c2 on EGFR, Rab5 and hGIIA localisation was also examined in PC-3 cells. PC-3 cells were co-transfected with EGFR-EGFP and Rab5-mCherry before treatment with hGIIA/AF647 and c2 at 0, 1 and 10 μM.

EGFR [6] = target: T1, EGFR; assay: Live cell imaging, EGFR-EGFP and lysotracker in PC-3 cells; format: cell-based; settings: PC-3, EGFR-EGFP and lysotracker, 100 μM, 24 hours
Experimental: as §1
PC-3 cells were seeded in a 24 well glass-bottom plate at 50 000 cells/well and incubated overnight at 37° C. and 5% CO2. Complete media was removed, wells washed with 500 μL of warm PBS for 1 min then removed and 500 μL serum free medium was added and left to incubate for one hour at 37° C. and 5% CO2. Cells were co-transfected with plasmids encoding fusion protein EGFR-EGFP (Addgene plasmid #32751, a gift from Alexander Sorkin) using Lipofectamine 3000 (Thermo Fisher Scientific) as per the manufacturer's instructions. Cells were incubated for 48 hours at 37° C. and 5% CO2, after which transfection efficiency was determined through observation of EGFP and signal with a confocal microscope LSM 800 (Zeiss). LysoTracker far red (Thermo Fisher Scientific) was incubated at 1 μM for 37° C. and 5% CO2. Cells were washed three times with PBS and serum free media was added to cells, Either DMSO (0.5%) or D3 (100 μM) were added overnight at 37° C. and 5% CO2 before imaging on the confocal microscope LSM 800 (Zeiss).

[7] = read-out: Resistance (value in brackets)

SMILES | recovery of EGFR levels (EGFR [1]) | lysotracker signal of endocytosed EGFR speckles (EGFR [2]; 1 μM) | EGFR signal (EGFR [2]; 1 μM, vs DMSO) | lysotracker signal (EGFR [2]; 100 μM) | lysotracker signal of endocytosed EGFR speckles (EGFR [2]; 100 μM) | potency order in inhibiting the EGF/EGFR interaction (EGF-EGFR interaction) | inhibition of the EGF/EGFR interaction (EGF-EGFR interaction) | other results
CC(C)C[C@@H]1NC(=O)[C@@H](Cc2cccc3ccccc23)NC(=O)[C@H](CCCNC(=N)N)NC(=O)[C@H](Cc2ccc3ccccc3c2)NC(=O)[C@H](CO)NC1=O [Compound D1, cyclo[(D-1Nal)-Leu-Ser-(L-2Nal)-Arg]] (cyclo([2Nal]R[d1Nal]LS)) | returned to normal by 24 and 48 hours | significantly increased lysotracker signal | significant reduction in EGFR signal | increased lysotracker signal | significantly increased lysotracker signal | FLM-c2>D1>D2>D3 | inhibited the EGF/EGFR interaction at high concentrations | synergy with cetuximab (SW48 and SW48G12V): significant synergy; fraction of membrane-localised EGFR signal (EGFR [2]; 100 μM, vs DMSO): significantly reduced; IC50 compared with c2, D2 and D3 ([3]; H3255, HCC827, H1975, HCT116, SW48, SW48G12V, HT29, RKO, 0.01-300 μM, 72 hours): lowest IC50 in all cell lines; efficacy in NSCLC cell lines sensitive and resistant to erlotinib ([3]; HCC827, H1975 and H3255): retained efficacy; efficacy in cetuximab sensitive and resistant cell lines ([3]; SW48 vs SW48G12V, HT29, HCT116 and RKO): comparable efficacy; pERK signal, comparison among LYTAPs (pERK): largest effect; synergy with cetuximab [4]: potent synergy; synergy with cetuximab, U0126 and chloroquine [4]: exhibited synergy with all three
C#Cc1cccc(Nc2ncnc3cc(OCCOC)c(OCCOC)cc23)c1 [erlotinib] |  |  |  |  |  |  |  | Resistance (H3255): Erlotinib sensitive; IC50 (H3255; [7]): 40 nM; Resistance (H1975): Erlotinib resistant; IC50 (H1975; [7]): 4300 nM
CS(=O)(=O)CCNCc1ccc(-c2ccc3ncnc(Nc4ccc(OCc5cccc(F)c5)c(Cl)c4)c3c2)o1 [Lapatinib] |  |  |  |  |  |  |  | effect on EGFR, Rab5 and hGIIA localisation [5]: altering the localisation of hGIIA and Rab5 to become less punctate and more cytosolic
CC(C)C[C@@H]1NC(=O)[C@@H](Cc2ccccc2)NC(=O)[C@H](CCCNC(=N)N)NC(=O)[C@H](Cc2ccccc2)NC(=O)[C@H](CO)NC1=O [Compound D3, cyclo[(D-Phe)-Leu-Ser-(L-Phe)-Arg)]] (cyclo(FR[dF]LS)) |  |  | significant reduction in EGFR signal |  | significantly increased lysotracker signal | FLM-c2>D1>D2>D3 | inhibited the EGF/EGFR interaction at high concentrations | colocalization of EGFR with lysosomes (EGFR [6]): confirmed colocalization of EGFR with lysosomes
CC(C)C[C@@H]1NC(=O)[C@@H](Cc2ccccc2)NC(=O)[C@H](CCCNC(=N)N)NC(=O)[C@H](Cc2ccc3ccccc3c2)NC(=O)[C@H](CO)NC1=O [Compound D2, cyclo[(D-Phe)-Leu-Ser-(L-2Nal)-Arg]] (cyclo([2Nal]R[dF]LS)) | returned to normal by 24 and 48 hours | significantly increased lysotracker signal | significant reduction in EGFR signal | increased lysotracker signal |  | FLM-c2>D1>D2>D3 | inhibited the EGF/EGFR interaction at high concentrations | 
